Assay: mn = molality of the nth substance listed, in mol/kg
Settings: 298.15 K, 101 kPa, Liquid, Pycnometric method

O=[N+]([O-])[O-].O=[N+]([O-])[O-].O=[N+]([O-])[O-].[Fe+3] [ferric nitrate] + O
Settings | mass density [kg/m3]
m1 = 0.1102 | 1017.4
m1 = 0.4672 | 1079.1
m1 = 1.183 | 1194.2
m1 = 1.476 | 1235.5
m1 = 1.907 | 1293.8
m1 = 2.442 | 1363.6

O=[N+]([O-])[O-].O=[N+]([O-])[O-].[Mn+2] [manganese nitrate] + O
Settings | mass density [kg/m3]
m1 = 0.0287 | 1000.9
m1 = 0.1948 | 1023
m1 = 0.5661 | 1069.9
m1 = 1.373 | 1162.1
m1 = 2.006 | 1224
m1 = 3.484 | 1359

O=[N+]([O-])[O-].O=[N+]([O-])[O-].O=[N+]([O-])[O-].[Al+3] [aluminum trinitrate] + O
Settings | mass density [kg/m3]
m1 = 0.5413 | 1081.6
m1 = 0.8667 | 1128.8
m1 = 1.007 | 1148.4
m1 = 1.507 | 1213.3
m1 = 2.012 | 1288.7
m1 = 2.793 | 1355.7
